Test results taken from paper PMC11189555, “Aryl amino acetamides prevent Plasmodium falciparum ring development via targeting the lipid-transfer protein PfSTART1” (Nature Communications, 2024).
Where two headings read alike, the source gives them in different places.

Legend:
[1] = in vitro; settings: human
[2] = test system: PopD-D7 M-833 resistant clone (PfSTART1 N309K); test: Growth inhibition assay (72 h, LDH activity); assay type: cell-based, Plasmodium falciparum; settings: for (av-uRBC) / (DMSO-uRBC) x100: PopD-D7
Summary of the method: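 Synchronised ring-stage 3D7-derived clones (0.3-0.6% parasitemia, 2% haematocrit) grown 72 h in compound serial dilutions, some with 0, 0.25 or 2.5 mM glucosamine. Growth read as LDH activity after freeze-thaw (Malstat/NBT, A650), normalised to DMSO and uninfected RBC; EC50 from variable-slope log(inhibitor) fit.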

[3] = test system: 3D7 P. falciparum parasites; test: Growth inhibition assay (72 h, LDH activity); assay type: cell-based, Plasmodium falciparum; settings: for EC50: Plasmodium falciparum
Summary of the method: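 Synchronised ring-stage P. falciparum (0.3-0.6% parasitemia, 2% haematocrit) grown 72 h in serial compound dilutions, sometimes with 0, 0.25 or 2.5 mM glucosamine. Growth read as LDH activity (Malstat/NBT, A650) after freeze-thaw, normalised to DMSO and uninfected RBC. EC50 by nonlinear regression.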

## O=C(CNc1ccc(Cl)c(S(=O)(=O)N2CCOCC2)c1)Nc1ccc(F)c(Cl)c1 [compound 2, reference compound]
[1]
  CC50: > 40000 nM
[2]; Plasmodium falciparum, Supplementary Table 1, PopD-D7 (N309K), 72 h, read-out: EC50
  EC50: > 20000 nM
[2]; PopD-D7 (N309K), Fig 4B
  resistance of the line compared with 3D7: highly resistant
[2]; conc. 3.04832 nM, Biological replicate 1 (2021-10-25)
  (av-uRBC) / (DMSO-uRBC) x100: 108.297
[2]; conc. 3.04832 nM, Biological replicate 2 (2021-11-03)
  (av-uRBC) / (DMSO-uRBC) x100: 110.746
[2]; conc. 3.04832 nM, Biological replicate 3 (2021-11-11)
  (av-uRBC) / (DMSO-uRBC) x100: 101.173
[2]; conc. 9.14495 nM, Biological replicate 1 (2021-10-25)
  (av-uRBC) / (DMSO-uRBC) x100: 111.853
[2]; conc. 9.14495 nM, Biological replicate 2 (2021-11-03)
  (av-uRBC) / (DMSO-uRBC) x100: 111.153
[2]; conc. 9.14495 nM, Biological replicate 3 (2021-11-11)
  (av-uRBC) / (DMSO-uRBC) x100: 114.836
[2]; conc. 27.4348 nM, Biological replicate 1 (2021-10-25)
  (av-uRBC) / (DMSO-uRBC) x100: 111.176
[2]; conc. 27.4348 nM, Biological replicate 2 (2021-11-03)
  (av-uRBC) / (DMSO-uRBC) x100: 111.76
[2]; conc. 27.4348 nM, Biological replicate 3 (2021-11-11)
  (av-uRBC) / (DMSO-uRBC) x100: 128.575
[2]; conc. 82.3045 nM, Biological replicate 1 (2021-10-25)
  (av-uRBC) / (DMSO-uRBC) x100: 109.097
[2]; conc. 82.3045 nM, Biological replicate 2 (2021-11-03)
  (av-uRBC) / (DMSO-uRBC) x100: 114.254
[2]; conc. 82.3045 nM, Biological replicate 3 (2021-11-11)
  (av-uRBC) / (DMSO-uRBC) x100: 124.242
[2]; conc. 246.914 nM, Biological replicate 1 (2021-10-25)
  (av-uRBC) / (DMSO-uRBC) x100: 110.536
[2]; conc. 246.914 nM, Biological replicate 2 (2021-11-03)
  (av-uRBC) / (DMSO-uRBC) x100: 113.933
[2]; conc. 246.914 nM, Biological replicate 3 (2021-11-11)
  (av-uRBC) / (DMSO-uRBC) x100: 129.518
[2]; conc. 740.741 nM, Biological replicate 1 (2021-10-25)
  (av-uRBC) / (DMSO-uRBC) x100: 106.002
[2]; conc. 740.741 nM, Biological replicate 2 (2021-11-03)
  (av-uRBC) / (DMSO-uRBC) x100: 112.781
[2]; conc. 740.741 nM, Biological replicate 3 (2021-11-11)
  (av-uRBC) / (DMSO-uRBC) x100: 117.002
[2]; conc. 2222.22 nM, Biological replicate 1 (2021-10-25)
  (av-uRBC) / (DMSO-uRBC) x100: 103.716
[2]; conc. 2222.22 nM, Biological replicate 2 (2021-11-03)
  (av-uRBC) / (DMSO-uRBC) x100: 111.361
[2]; conc. 2222.22 nM, Biological replicate 3 (2021-11-11)
  (av-uRBC) / (DMSO-uRBC) x100: 123.604
[2]; conc. 6666.67 nM, Biological replicate 1 (2021-10-25)
  (av-uRBC) / (DMSO-uRBC) x100: 102.822
[2]; conc. 6666.67 nM, Biological replicate 2 (2021-11-03)
  (av-uRBC) / (DMSO-uRBC) x100: 107.742
[2]; conc. 6666.67 nM, Biological replicate 3 (2021-11-11)
  (av-uRBC) / (DMSO-uRBC) x100: 113.943
[2]; conc. 20000 nM, Biological replicate 1 (2021-10-25)
  (av-uRBC) / (DMSO-uRBC) x100: 68.9276
[2]; conc. 20000 nM, Biological replicate 2 (2021-11-03)
  (av-uRBC) / (DMSO-uRBC) x100: 85.5559
[2]; conc. 20000 nM, Biological replicate 3 (2021-11-11)
  (av-uRBC) / (DMSO-uRBC) x100: 59.2149
[2]; Supplementary Table 1, EC50 on PopD-D7 vs 3D7
  Fold change compared to 3D7: > 117 fold
[3]; 3D7, conc. 3.04832 nM, Biological replicate 1 (2021-10-25)
  (av-uRBC) / (DMSO-uRBC) x100: 101.583
[3]; 3D7, conc. 3.04832 nM, Biological replicate 2 (2021-11-03)
  (av-uRBC) / (DMSO-uRBC) x100: 104.234
[3]; 3D7, conc. 3.04832 nM, Biological replicate 3 (2021-11-11)
  (av-uRBC) / (DMSO-uRBC) x100: 118.798
[3]; 3D7, conc. 9.14495 nM, Biological replicate 1 (2021-10-25)
  (av-uRBC) / (DMSO-uRBC) x100: 98.3522
[3]; 3D7, conc. 9.14495 nM, Biological replicate 2 (2021-11-03)
  (av-uRBC) / (DMSO-uRBC) x100: 106.026
[3]; 3D7, conc. 9.14495 nM, Biological replicate 3 (2021-11-11)
  (av-uRBC) / (DMSO-uRBC) x100: 112.58
[3]; 3D7, conc. 27.4348 nM, Biological replicate 1 (2021-10-25)
  (av-uRBC) / (DMSO-uRBC) x100: 92.7855
[3]; 3D7, conc. 27.4348 nM, Biological replicate 2 (2021-11-03)
  (av-uRBC) / (DMSO-uRBC) x100: 105.906
[3]; 3D7, conc. 27.4348 nM, Biological replicate 3 (2021-11-11)
  (av-uRBC) / (DMSO-uRBC) x100: 106.329
[3]; 3D7, conc. 82.3045 nM, Biological replicate 1 (2021-10-25)
  (av-uRBC) / (DMSO-uRBC) x100: 76.9881
[3]; 3D7, conc. 82.3045 nM, Biological replicate 2 (2021-11-03)
  (av-uRBC) / (DMSO-uRBC) x100: 101.625
[3]; 3D7, conc. 82.3045 nM, Biological replicate 3 (2021-11-11)
  (av-uRBC) / (DMSO-uRBC) x100: 81.2348
[3]; 3D7, conc. 246.914 nM, Biological replicate 1 (2021-10-25)
  (av-uRBC) / (DMSO-uRBC) x100: 38.3866
[3]; 3D7, conc. 246.914 nM, Biological replicate 2 (2021-11-03)
  (av-uRBC) / (DMSO-uRBC) x100: 48.8275
[3]; 3D7, conc. 246.914 nM, Biological replicate 3 (2021-11-11)
  (av-uRBC) / (DMSO-uRBC) x100: 35.6638
[3]; 3D7, conc. 740.741 nM, Biological replicate 1 (2021-10-25)
  (av-uRBC) / (DMSO-uRBC) x100: 12.6522
[3]; 3D7, conc. 740.741 nM, Biological replicate 2 (2021-11-03)
  (av-uRBC) / (DMSO-uRBC) x100: 13.3573
[3]; 3D7, conc. 740.741 nM, Biological replicate 3 (2021-11-11)
  (av-uRBC) / (DMSO-uRBC) x100: 9.565
[3]; 3D7, conc. 2222.22 nM, Biological replicate 1 (2021-10-25)
  (av-uRBC) / (DMSO-uRBC) x100: 9.471
[3]; 3D7, conc. 2222.22 nM, Biological replicate 2 (2021-11-03)
  (av-uRBC) / (DMSO-uRBC) x100: 10.1641
[3]; 3D7, conc. 2222.22 nM, Biological replicate 3 (2021-11-11)
  (av-uRBC) / (DMSO-uRBC) x100: 7.82
[3]; 3D7, conc. 6666.67 nM, Biological replicate 1 (2021-10-25)
  (av-uRBC) / (DMSO-uRBC) x100: 8.762
[3]; 3D7, conc. 6666.67 nM, Biological replicate 2 (2021-11-03)
  (av-uRBC) / (DMSO-uRBC) x100: 10.3401
[3]; 3D7, conc. 6666.67 nM, Biological replicate 3 (2021-11-11)
  (av-uRBC) / (DMSO-uRBC) x100: 6.881
[3]; 3D7, conc. 20000 nM, Biological replicate 1 (2021-10-25)
  (av-uRBC) / (DMSO-uRBC) x100: 8.397
[3]; 3D7, conc. 20000 nM, Biological replicate 2 (2021-11-03)
  (av-uRBC) / (DMSO-uRBC) x100: 8.683
[3]; 3D7, conc. 20000 nM, Biological replicate 3 (2021-11-11)
  (av-uRBC) / (DMSO-uRBC) x100: 3.998
[3]; 3D7, 72 h, Supplementary Table 1, 3D7, 72 h, read-out: EC50
  EC50: 171 nM
[3]; 3D7, Fig 4A, 3D7 parasites, read-out: Pf 3D7 EC50 (SD)
  EC50: 140 nM
